Assays:
Ephrin type-B receptor 4 = molecular target: T1, Ephrin type-B receptor 4 (Homo sapiens, UniProt P54760); experiment: Inhibition of EphB4 after 1 hr
T1 sequence (P54760 whole entry): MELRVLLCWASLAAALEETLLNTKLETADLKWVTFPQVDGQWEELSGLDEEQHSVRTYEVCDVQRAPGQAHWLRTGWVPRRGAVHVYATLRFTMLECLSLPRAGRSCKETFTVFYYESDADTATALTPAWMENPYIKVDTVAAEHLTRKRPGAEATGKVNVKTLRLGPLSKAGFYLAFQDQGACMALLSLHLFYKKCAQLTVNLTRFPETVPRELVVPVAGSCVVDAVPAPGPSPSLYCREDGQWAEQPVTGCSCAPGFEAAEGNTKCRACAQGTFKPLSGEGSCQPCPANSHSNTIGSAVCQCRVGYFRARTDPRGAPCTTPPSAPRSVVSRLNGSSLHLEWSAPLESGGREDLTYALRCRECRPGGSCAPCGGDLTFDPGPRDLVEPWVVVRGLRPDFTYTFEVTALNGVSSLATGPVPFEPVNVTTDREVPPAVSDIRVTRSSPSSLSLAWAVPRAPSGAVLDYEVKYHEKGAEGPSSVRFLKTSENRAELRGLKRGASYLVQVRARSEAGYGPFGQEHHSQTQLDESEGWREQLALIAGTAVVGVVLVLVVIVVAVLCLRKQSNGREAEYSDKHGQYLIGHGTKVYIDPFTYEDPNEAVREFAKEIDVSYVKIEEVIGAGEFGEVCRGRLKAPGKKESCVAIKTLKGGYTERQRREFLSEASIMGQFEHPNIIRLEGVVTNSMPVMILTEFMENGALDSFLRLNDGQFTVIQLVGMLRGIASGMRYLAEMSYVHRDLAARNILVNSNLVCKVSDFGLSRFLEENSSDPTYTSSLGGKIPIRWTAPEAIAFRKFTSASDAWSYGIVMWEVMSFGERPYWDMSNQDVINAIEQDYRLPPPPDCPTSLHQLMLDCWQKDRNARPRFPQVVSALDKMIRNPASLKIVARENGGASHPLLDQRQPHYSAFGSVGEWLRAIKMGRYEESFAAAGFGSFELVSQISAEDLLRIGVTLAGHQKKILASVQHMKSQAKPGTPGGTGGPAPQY

[1] = molecular target: Tyrosine-protein kinase ABL1 (Homo sapiens, UniProt P00519); experiment: Inhibition of Abl1 after 1 hr
Chain of Tyrosine-protein kinase ABL1 (P00519 whole entry): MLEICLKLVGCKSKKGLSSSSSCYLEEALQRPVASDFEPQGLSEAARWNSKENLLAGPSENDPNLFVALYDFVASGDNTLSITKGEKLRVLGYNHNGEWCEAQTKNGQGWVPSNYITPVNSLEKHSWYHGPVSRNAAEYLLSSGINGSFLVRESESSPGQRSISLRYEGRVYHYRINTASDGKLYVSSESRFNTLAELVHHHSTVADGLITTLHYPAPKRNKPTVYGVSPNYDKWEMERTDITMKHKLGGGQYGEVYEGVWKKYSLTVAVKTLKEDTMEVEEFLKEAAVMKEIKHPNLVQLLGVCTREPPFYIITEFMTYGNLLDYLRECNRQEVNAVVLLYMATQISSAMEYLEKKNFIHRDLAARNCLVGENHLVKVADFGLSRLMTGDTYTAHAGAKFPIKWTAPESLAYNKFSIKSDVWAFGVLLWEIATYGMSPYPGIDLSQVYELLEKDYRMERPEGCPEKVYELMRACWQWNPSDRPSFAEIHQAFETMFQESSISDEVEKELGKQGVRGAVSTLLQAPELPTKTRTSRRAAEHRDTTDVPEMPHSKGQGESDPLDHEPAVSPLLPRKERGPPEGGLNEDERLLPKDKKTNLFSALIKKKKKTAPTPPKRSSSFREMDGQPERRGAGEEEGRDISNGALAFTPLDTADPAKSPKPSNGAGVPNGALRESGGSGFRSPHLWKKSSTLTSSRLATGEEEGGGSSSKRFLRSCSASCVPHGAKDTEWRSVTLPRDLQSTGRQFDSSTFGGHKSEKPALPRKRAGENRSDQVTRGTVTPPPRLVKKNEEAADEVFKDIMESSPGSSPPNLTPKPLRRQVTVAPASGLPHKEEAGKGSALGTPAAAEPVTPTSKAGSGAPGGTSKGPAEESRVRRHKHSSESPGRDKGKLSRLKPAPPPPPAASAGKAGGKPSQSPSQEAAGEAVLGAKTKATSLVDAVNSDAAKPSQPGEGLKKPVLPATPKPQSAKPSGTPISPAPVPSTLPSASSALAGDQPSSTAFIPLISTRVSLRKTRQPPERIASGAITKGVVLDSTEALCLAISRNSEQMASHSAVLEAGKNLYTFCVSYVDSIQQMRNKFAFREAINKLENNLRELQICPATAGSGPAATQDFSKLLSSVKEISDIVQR

[2] = molecular target: Tyrosine-protein kinase BTK (Homo sapiens, UniProt Q06187); experiment: Inhibition of Btk after 1 hr
Ephrin type-A receptor 2 = Ephrin type-A receptor 2 (Homo sapiens, UniProt P29317); experiment: Inhibition of EPHA2 after 1 hr
Chain of Ephrin type-A receptor 2 (P29317 whole entry): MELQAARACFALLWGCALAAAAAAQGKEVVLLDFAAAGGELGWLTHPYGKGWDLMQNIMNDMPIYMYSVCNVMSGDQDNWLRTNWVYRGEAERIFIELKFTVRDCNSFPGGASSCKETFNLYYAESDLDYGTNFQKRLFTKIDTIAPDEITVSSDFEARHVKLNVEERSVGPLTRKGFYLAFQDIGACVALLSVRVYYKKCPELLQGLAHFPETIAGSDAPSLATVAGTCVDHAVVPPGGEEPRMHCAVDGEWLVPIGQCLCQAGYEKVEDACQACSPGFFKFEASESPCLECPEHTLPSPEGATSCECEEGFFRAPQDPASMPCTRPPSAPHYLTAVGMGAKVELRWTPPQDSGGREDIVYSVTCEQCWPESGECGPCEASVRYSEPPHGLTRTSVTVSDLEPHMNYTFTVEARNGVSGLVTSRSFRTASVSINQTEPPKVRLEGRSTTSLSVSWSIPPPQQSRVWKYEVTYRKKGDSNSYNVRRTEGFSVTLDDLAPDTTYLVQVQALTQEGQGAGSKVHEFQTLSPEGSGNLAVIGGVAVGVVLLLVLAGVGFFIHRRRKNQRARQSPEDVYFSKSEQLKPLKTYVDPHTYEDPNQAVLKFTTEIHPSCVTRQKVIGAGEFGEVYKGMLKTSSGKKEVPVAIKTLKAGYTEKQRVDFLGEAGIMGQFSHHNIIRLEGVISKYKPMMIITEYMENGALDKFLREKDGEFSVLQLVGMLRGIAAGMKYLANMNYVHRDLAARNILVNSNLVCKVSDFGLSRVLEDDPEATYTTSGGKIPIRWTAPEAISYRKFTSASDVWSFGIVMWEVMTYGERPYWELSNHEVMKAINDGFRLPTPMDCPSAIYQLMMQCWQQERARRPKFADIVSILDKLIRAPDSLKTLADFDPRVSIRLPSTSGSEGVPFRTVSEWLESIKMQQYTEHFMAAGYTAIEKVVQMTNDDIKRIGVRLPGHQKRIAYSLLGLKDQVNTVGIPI

[3] = molecular target: T2, Receptor-type tyrosine-protein kinase FLT3 (Homo sapiens, UniProt P36888); experiment: Inhibition of Flt3 after 1 hr
T2 sequence (P36888 whole entry): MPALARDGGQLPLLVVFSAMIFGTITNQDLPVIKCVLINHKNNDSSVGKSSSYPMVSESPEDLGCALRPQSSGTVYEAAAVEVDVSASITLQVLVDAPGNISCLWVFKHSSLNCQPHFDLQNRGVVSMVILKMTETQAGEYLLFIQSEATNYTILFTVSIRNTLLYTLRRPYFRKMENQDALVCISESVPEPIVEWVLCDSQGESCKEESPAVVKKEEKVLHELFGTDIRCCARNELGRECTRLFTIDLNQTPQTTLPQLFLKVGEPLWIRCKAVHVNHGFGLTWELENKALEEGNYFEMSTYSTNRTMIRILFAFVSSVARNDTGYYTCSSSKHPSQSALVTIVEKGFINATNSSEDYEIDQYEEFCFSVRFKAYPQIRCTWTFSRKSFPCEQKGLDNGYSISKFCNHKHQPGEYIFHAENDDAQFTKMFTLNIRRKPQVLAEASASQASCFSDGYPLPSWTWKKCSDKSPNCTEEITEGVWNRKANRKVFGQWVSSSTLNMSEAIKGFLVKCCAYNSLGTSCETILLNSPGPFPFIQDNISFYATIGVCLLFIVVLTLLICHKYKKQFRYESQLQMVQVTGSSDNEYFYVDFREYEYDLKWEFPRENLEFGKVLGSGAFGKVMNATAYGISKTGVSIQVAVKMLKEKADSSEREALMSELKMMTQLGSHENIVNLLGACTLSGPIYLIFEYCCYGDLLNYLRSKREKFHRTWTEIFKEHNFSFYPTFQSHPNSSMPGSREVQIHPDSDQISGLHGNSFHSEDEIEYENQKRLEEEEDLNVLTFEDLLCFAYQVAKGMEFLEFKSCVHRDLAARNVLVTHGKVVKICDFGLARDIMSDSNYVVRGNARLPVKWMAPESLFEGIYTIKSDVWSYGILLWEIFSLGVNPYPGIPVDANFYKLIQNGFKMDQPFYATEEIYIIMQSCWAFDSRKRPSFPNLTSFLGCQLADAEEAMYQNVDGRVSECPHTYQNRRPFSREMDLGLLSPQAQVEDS

[4] = molecular target: Tyrosine-protein kinase Lyn (Homo sapiens, UniProt P07948); experiment: Inhibition of Lyn after 1 hr
Chain of Tyrosine-protein kinase Lyn (P07948 whole entry): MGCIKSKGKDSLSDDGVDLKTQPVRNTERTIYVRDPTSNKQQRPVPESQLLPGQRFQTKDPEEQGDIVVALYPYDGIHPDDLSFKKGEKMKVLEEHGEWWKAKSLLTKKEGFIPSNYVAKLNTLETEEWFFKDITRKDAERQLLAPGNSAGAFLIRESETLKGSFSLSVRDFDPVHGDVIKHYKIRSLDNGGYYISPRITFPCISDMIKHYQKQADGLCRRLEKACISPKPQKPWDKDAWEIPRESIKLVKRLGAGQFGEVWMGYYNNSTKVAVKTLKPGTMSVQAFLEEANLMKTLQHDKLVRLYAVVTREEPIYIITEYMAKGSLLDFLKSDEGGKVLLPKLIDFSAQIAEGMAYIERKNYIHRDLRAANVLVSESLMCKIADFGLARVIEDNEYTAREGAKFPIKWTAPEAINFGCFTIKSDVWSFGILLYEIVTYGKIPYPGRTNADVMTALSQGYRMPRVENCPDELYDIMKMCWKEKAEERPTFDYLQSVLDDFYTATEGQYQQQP

[5] = molecular target: Platelet-derived growth factor receptor beta (Homo sapiens, UniProt P09619); experiment: Inhibition of PDGFRbeta after 1 hr
Chain of Platelet-derived growth factor receptor beta (P09619 whole entry): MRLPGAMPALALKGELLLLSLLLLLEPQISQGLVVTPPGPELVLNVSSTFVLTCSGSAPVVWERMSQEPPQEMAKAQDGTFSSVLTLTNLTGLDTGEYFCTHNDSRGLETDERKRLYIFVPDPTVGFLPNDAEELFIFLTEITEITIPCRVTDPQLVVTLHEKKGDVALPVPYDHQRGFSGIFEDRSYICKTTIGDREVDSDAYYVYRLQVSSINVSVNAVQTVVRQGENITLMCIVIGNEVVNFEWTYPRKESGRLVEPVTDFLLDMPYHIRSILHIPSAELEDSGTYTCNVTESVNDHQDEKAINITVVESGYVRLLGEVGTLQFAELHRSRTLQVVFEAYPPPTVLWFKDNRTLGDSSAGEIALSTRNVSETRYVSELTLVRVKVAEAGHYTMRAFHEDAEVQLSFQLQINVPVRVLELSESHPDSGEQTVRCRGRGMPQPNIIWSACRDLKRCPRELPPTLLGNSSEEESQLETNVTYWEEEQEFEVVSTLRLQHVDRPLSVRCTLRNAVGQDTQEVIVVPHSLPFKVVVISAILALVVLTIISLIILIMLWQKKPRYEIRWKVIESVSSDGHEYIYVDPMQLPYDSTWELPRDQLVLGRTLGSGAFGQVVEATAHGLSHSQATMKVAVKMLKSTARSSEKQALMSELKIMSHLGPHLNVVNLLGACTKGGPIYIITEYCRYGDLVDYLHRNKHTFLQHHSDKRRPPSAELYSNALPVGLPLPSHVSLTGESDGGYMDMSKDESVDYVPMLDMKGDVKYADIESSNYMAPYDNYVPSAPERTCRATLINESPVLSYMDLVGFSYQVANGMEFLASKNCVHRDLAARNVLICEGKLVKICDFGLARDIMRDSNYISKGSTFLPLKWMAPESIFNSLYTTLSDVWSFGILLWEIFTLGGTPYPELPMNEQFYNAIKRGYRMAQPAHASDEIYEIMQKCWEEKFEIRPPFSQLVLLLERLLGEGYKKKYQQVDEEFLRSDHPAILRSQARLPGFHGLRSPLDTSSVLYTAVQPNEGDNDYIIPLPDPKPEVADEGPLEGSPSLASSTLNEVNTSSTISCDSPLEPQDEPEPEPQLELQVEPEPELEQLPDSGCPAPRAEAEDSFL

Angiopoietin-1 receptor = Angiopoietin-1 receptor (Homo sapiens, UniProt Q02763); experiment: Inhibition of Tie2 after 1 hr
[6] = molecular target: Vascular endothelial growth factor receptor 1 (Homo sapiens, UniProt P17948); experiment: Inhibition of VEGFR1 after 1 hr
Chain of Vascular endothelial growth factor receptor 1 (P17948 whole entry): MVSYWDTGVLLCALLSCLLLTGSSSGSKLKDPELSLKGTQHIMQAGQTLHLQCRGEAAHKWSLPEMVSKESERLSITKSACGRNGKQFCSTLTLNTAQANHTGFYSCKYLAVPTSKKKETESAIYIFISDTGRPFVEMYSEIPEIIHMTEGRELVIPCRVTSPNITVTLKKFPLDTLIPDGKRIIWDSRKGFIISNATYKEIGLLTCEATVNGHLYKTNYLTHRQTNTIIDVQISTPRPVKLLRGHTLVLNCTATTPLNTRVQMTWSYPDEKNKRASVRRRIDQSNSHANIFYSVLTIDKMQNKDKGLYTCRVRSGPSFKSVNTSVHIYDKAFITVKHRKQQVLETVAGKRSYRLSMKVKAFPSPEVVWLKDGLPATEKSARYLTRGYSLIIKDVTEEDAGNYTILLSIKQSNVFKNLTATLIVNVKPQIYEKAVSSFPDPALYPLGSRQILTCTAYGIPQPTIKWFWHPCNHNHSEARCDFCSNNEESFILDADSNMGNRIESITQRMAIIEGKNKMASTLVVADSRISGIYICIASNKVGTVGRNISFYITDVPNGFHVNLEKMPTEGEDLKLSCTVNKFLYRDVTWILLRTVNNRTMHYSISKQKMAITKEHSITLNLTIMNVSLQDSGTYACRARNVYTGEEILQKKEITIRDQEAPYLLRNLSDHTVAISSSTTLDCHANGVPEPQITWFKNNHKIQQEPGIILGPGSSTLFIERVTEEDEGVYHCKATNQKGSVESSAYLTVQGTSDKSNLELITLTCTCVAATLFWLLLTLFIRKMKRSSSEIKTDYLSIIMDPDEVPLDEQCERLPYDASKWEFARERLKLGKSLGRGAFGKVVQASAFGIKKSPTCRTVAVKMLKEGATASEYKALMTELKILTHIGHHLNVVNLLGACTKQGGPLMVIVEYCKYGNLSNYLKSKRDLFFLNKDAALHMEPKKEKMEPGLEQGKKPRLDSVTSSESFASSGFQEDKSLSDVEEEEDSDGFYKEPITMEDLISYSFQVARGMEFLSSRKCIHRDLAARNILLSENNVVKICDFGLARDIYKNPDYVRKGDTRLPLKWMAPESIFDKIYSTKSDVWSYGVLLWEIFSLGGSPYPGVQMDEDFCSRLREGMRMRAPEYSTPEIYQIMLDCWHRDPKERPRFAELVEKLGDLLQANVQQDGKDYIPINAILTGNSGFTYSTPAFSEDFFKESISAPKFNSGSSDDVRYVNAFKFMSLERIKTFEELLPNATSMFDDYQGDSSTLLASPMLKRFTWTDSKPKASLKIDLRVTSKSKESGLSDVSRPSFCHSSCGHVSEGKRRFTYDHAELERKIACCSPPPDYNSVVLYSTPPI

[7] = molecular target: Vascular endothelial growth factor receptor 2 (Homo sapiens, UniProt P35968); experiment: Inhibition of VEGFR2 after 1 hr
[8] = molecular target: Vascular endothelial growth factor receptor 3 (Homo sapiens, UniProt P35916); experiment: Inhibition of VEGFR3 after 1 hr

IC50 (Ephrin type-B receptor 4): 0.062 µM | IC50 [1]: 14.4 µM | IC50 [2]: 7.8 µM | IC50 (Ephrin type-A receptor 2): 0.035 µM | IC50 [3]: 2 µM | IC50 [4]: 6 µM | IC50 [5]: 7.7 µM | IC50 (Angiopoietin-1 receptor): 0.067 µM | IC50 [6]: 0.747 µM | IC50 [7]: 0.033 µM | IC50 [8]: 0.071 µM
SMILES: O=C(Nc1cccc(-c2cn3ccnc3c(NCc3ccncc3)n2)c1)Nc1cccc(C(F)(F)F)c1
